Molecules are shown by their SMILES. pIC50: −log10 of the molar value.

Experimental findings from US10202339B2, “Therapeutic compounds and compositions” (AGIOS PHARMACEUTICALS, INC., priority 2012, dated 2019) are described below.

The target in this assay is IDH2 R140Q (Homo sapiens (Human), UniProt P48735, R140Q). The experiment in a line: IDH2 R140Q enzymatic cofactor depletion assay (diaphorase/resazurin). The assay is classed as biochemical. The note with it: IDH2 R140Q enzyme, one hour preincubation with compound, one hour reaction; read-out: Enz R140Q. The procedure: The reaction was terminated by the addition of a second enzyme, diaphorase, and a corresponding substrate, resazurin. Diaphorase reduces resazurin to the highly fluorescent resorufin with the concomitant oxidation of NADPH to NADP, both halting the IDH2 reaction by depleting the available cofactor pool and facilitating quantitation of the amount of cofactor remaining after a specific time period through quantitative production of an easily detected fluorophore.
Sequence of IDH2 R140Q (P48735 40-452 R140Q): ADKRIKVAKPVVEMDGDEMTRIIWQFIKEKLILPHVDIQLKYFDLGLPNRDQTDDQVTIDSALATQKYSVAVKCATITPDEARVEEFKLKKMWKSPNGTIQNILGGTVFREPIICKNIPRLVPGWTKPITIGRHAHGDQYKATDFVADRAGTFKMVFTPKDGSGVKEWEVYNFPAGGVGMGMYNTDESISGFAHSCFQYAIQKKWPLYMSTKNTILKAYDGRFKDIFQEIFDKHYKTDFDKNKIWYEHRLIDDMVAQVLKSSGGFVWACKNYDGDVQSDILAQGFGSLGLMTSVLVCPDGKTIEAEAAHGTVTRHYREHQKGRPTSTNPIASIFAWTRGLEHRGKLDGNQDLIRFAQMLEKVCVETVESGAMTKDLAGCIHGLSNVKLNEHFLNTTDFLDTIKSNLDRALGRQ
The compound was then incubated for one hour at room temperature with the enzyme; before starting the IDH2 reaction with the addition of 10 μl of substrate mix containing 50 μM NADPH and 6.3 mM α-KG in the buffer described above. After a further one hour of incubation at room temperature, the reaction was halted and the remaining NADPH measured through conversion of resazurin to resorufin by the addition of 25 μl Stop Mix (36 μg/ml diaphorase enzyme and 60 μM resazurin; in buffer). After one minute of incubation the plate was read on a plate reader at Ex544/Em590.
In the case of `O=C(Nc1ccccc1Cl)Nc1cc(S(=O)(=O)NCC(F)(F)F)ccc1-c1ccccc1` [Compound 42, 2-(3-(2-chlorophenyl)ureido)-N-(2,2,2-trifluoroethyl)-[1,1′-biphenyl]-4-sulfonamide], the pIC50 was 6.00 to 7.00.
As to `O=C(Nc1ccccc1OC(F)(F)F)Nc1cc(S(=O)(=O)NCC(F)(F)F)ccc1-c1ccccc1` [Compound 43, N-(2,2,2-trifluoroethyl)-2-(3-(2-(trifluoromethoxy)phenyl)ureido)-[1,1′-biphenyl]-4-sulfonamide], the pIC50 was 6.00 to 7.00.
Consider `O=C(Nc1cccc(C(F)(F)F)c1)Nc1cc(S(=O)(=O)NCC(F)(F)F)ccc1-c1ccccc1` [Compound 44, N-(2,2,2-trifluoroethyl)-2-(3-(3-(trifluoromethyl)phenyl)ureido)-[1,1′-biphenyl]-4-sulfonamide], for which the pIC50 was 6.00 to 7.00.
Regarding `O=C(Nc1cccc(C(F)(F)F)c1)Nc1cc(S(=O)(=O)NC2COC2)ccc1-c1ccccc1` [Compound 45, N-(oxetan-3-yl)-2-(3-(3-(trifluoromethyl)phenyl)ureido)-[1,1′-biphenyl]-4-sulfonamide], the pIC50 was over 7.00.
In the case of `N#CC1(NS(=O)(=O)c2ccc(-c3ccccc3)c(NC(=O)Nc3cccc(C(F)(F)F)c3)c2)CC1` [Compound 46, N-(1-cyanocyclopropyl)-2-(3-(3-(trifluoromethyl)phenyl)ureido)-[1,1′-biphenyl]-4-sulfonamide], the pIC50 was 6.00 to 7.00.
To `Cc1cccc(-c2ccc(S(=O)(=O)NC3CCOCC3)cc2NC(=O)Nc2cccc(C(F)(F)F)c2)c1` [Compound 47, 3′-methyl-N-(tetrahydro-2H-pyran-4-yl)-2-(3-(3-(trifluoromethyl)phenyl)ureido)-[1,1′-biphenyl]-4-sulfonamide] belongs 6.00 to 7.00.
To `Cc1cccc(-c2ccc(S(=O)(=O)NC3CC3)cc2NC(=O)Nc2cccc(C(F)(F)F)c2)c1` [Compound 48, N-cyclopropyl-3′-methyl-2-(3-(3-(trifluoromethyl)phenyl)ureido)-[1,1′-biphenyl]-4-sulfonamide] belongs 5.00 to 6.00; to `O=C(Nc1cccc(C(F)(F)F)c1)Nc1cc(S(=O)(=O)Nc2ccccc2)ccc1-c1cccc(O)c1` [Compound 50, 3′-hydroxy-N-phenyl-2-(3-(3-(trifluoromethyl)phenyl)ureido)-[1,1′-biphenyl]-4-sulfonamide], 6.00 to 7.00.
Turning to `COc1cccc(-c2ccc(S(=O)(=O)Nc3ccccc3)cc2NC(=O)Nc2cccc(C(F)(F)F)c2)c1` [Compound 51], the pIC50 was 5.00 to 6.00.
On to `O=C(Nc1ccc(F)c(Cl)c1)Nc1cc(S(=O)(=O)NC2CC2)ccc1-c1ccccc1` [Compound 52], for which the pIC50 is 5.00 to 6.00.
To `O=C(Nc1ccc(F)cc1)Nc1cc(S(=O)(=O)NC2CC2)ccc1-c1ccccc1` [Compound 53] belongs 5.00 to 6.00; to `O=C(Nc1cc(S(=O)(=O)NCC(F)(F)F)ccc1-c1ccccc1)NC1CCCC1` [Compound 54], 5.00 to 6.00; to `O=C(Nc1ccc(F)c(Cl)c1)Nc1cc(S(=O)(=O)NCC(F)(F)F)ccc1-c1cccnc1` [Compound 55], 5.00 to 6.00.
To `O=C(Nc1ccc(F)c(C(F)(F)F)c1)Nc1cc(S(=O)(=O)NCC(F)(F)F)ccc1-c1cccnc1` [Compound 56] belongs 5.00 to 6.00.
For `O=C(Nc1cccc(C(F)(F)F)c1)Nc1cc(S(=O)(=O)Nc2ccccc2)ccc1-c1cccc(Cl)c1` [Compound 57], the pIC50 was 5.00 to 6.00.
To `CS(=O)(=O)c1cccc(-c2ccc(S(=O)(=O)Nc3ccccc3)cc2NC(=O)Nc2cccc(C(F)(F)F)c2)c1` [Compound 58] belongs 5.00 to 6.00.
Turning to `COc1ccc(-c2ccc(S(=O)(=O)Nc3ccccc3)cc2NC(=O)Nc2cccc(C(F)(F)F)c2)cc1` [Compound 59], the pIC50 was 5.00 to 6.00.
To `O=C(Nc1cccc(C(F)(F)F)c1)Nc1cc(S(=O)(=O)Nc2ccccc2)ccc1-c1ccncc1` [Compound 60] belongs 5.00 to 6.00.
To `O=C(Nc1cccc(C(F)(F)F)c1)Nc1cc(S(=O)(=O)Nc2ccccc2)ccc1-c1cccnc1` [Compound 61] belongs 5.00 to 6.00; to `Cc1ccc(-c2ccc(S(=O)(=O)Nc3ccccc3)cc2NC(=O)Nc2cccc(C(F)(F)F)c2)cc1` [Compound 62], 5.00 to 6.00; to `O=C(Nc1cccc(C(F)(F)F)c1)Nc1cc(S(=O)(=O)Nc2ccccc2)ccc1-c1ccccc1F` [Compound 63], 5.00 to 6.00.
To `O=C(Nc1cccc(C(F)(F)F)c1)Nc1cc(S(=O)(=O)Nc2ccccc2)ccc1-c1cccc(F)c1` [Compound 64] belongs 5.00 to 6.00.
With `O=C(Nc1cc(C(F)(F)F)ccn1)Nc1cc(S(=O)(=O)NCC(F)(F)F)ccc1-c1cccnc1` [Compound 65], the pIC50 is 5.00 to 6.00.
On to `O=C(Nc1cc(S(=O)(=O)NCC(F)(F)F)ccc1-c1ccccc1)NC1CCCCC1` [Compound 66, 2-(3-cyclohexylureido)-N-(2,2,2-trifluoroethyl)-[1,1′-biphenyl]-4-sulfonamide], for which the pIC50 is 6.00 to 7.00.
To `CS(=O)(=O)c1cccc(NC(=O)Nc2cc(S(=O)(=O)NCC(F)(F)F)ccc2-c2ccccc2)c1` [Compound 67, 2-(3-(3-(methylsulfonyl)phenyl)ureido)-N-(2,2,2-trifluoroethyl)-[1,1′-biphenyl]-4-sulfonamide] belongs 6.00 to 7.00.
To `O=C(Nc1ccc(F)cc1F)Nc1cc(S(=O)(=O)NCC(F)(F)F)ccc1-c1ccccc1` [Compound 68, 2-(3-(2,4-difluorophenyl)ureido)-N-(2,2,2-trifluoroethyl)-[1,1′-biphenyl]-4-sulfonamide] belongs 6.00 to 7.00; to `O=C(Nc1ccc(F)c(C(F)(F)F)c1)Nc1cc(S(=O)(=O)NCC(F)(F)F)ccc1-c1ccccc1` [Compound 69, 2-(3-(4-fluoro-3-(trifluoromethyl)phenyl)ureido)-N-(2,2,2-trifluoroethyl)-[1,1′-biphenyl]-4-sulfonamide], 6.00 to 7.00; to `O=C(Nc1nccs1)Nc1cc(S(=O)(=O)NCC(F)(F)F)ccc1-c1ccccc1` [Compound 70, 2-(3-(thiazol-2-yl)ureido)-N-(2,2,2-trifluoroethyl)-[1,1′-biphenyl]-4-sulfonamide], 6.00 to 7.00.
Take `CC1CCCC(NC(=O)Nc2cc(S(=O)(=O)NCC(F)(F)F)ccc2-c2ccccc2)C1` (stereo not shown) [Compound 71, 2-(3-(3-methylcyclohexyl)ureido)-N-(2,2,2-trifluoroethyl)-[1,1′-biphenyl]-4-sulfonamide]: the pIC50 was 6.00 to 7.00.
As for `O=C(Nc1cc(S(=O)(=O)NCC(F)(F)F)ccc1-c1ccccc1)NC1CCCC(C(F)(F)F)C1` (stereo not shown) [Compound 72, N-(2,2,2-trifluoroethyl)-2-(3-(3-(trifluoromethyl)cyclohexyl)ureido)-[1,1′-biphenyl]-4-sulfonamide], the pIC50 was 6.00 to 7.00.
As for `CC1(C)CCCC(NC(=O)Nc2cc(S(=O)(=O)NCC(F)(F)F)ccc2-c2ccccc2)C1` (stereo not shown) [Compound 73], the pIC50 is 5.00 to 6.00.
To `O=C(Nc1cc(Cl)ccc1F)Nc1cc(S(=O)(=O)NCC(F)(F)F)ccc1-c1ccccc1` [Compound 74, 2-(3-(5-chloro-2-fluorophenyl)ureido)-N-(2,2,2-trifluoroethyl)-[1,1′-biphenyl]-4-sulfonamide] belongs 6.00 to 7.00.
To `O=C(Nc1cc(S(=O)(=O)NCC(F)(F)F)ccc1-c1ccccc1)Nc1ccc(F)cc1C(F)(F)F` [Compound 76, 2-(3-(4-fluoro-2-(trifluoromethyl)phenyl)ureido)-N-(2,2,2-trifluoroethyl)-[1,1′-biphenyl]-4-sulfonamide] belongs 6.00 to 7.00.
For the molecule `O=C(Nc1cc(S(=O)(=O)NCC(F)(F)F)ccc1-c1ccccc1)Nc1ccncc1C(F)(F)F` [Compound 78, N-(2,2,2-trifluoroethyl)-2-(3-(3-(trifluoromethyl)pyridin-4-yl)ureido)-[1,1′-biphenyl]-4-sulfonamide], the pIC50 was 6.00 to 7.00.
To `O=C(Nc1cccc(Cl)n1)Nc1cc(S(=O)(=O)NCC(F)(F)F)ccc1-c1ccccc1` [Compound 79, 2-(3-(6-chloropyridin-2-yl)ureido)-N-(2,2,2-trifluoroethyl)-[1,1′-biphenyl]-4-sulfonamide] belongs 6.00 to 7.00.
As for `O=C(Nc1cccc(CO)c1)Nc1cc(S(=O)(=O)NCC(F)(F)F)ccc1-c1ccccc1` [Compound 80, 2-(3-(3-(hydroxymethyl)phenyl)ureido)-N-(2,2,2-trifluoroethyl)-[1,1′-biphenyl]-4-sulfonamide], the pIC50 is 6.00 to 7.00.
To `O=C(Nc1cccc(O)c1)Nc1cc(S(=O)(=O)NCC(F)(F)F)ccc1-c1ccccc1` [Compound 81, 2-(3-(3-hydroxyphenyl)ureido)-N-(2,2,2-trifluoroethyl)-[1,1′-biphenyl]-4-sulfonamide] belongs 6.00 to 7.00.
To `O=C(Nc1cc(Cl)ccn1)Nc1cc(S(=O)(=O)NCC(F)(F)F)ccc1-c1ccccc1` [Compound 82, 2-(3-(4-chloropyridin-2-yl)ureido)-N-(2,2,2-trifluoroethyl)-[1,1′-biphenyl]-4-sulfonamide] belongs 6.00 to 7.00; to `C[S+]([O-])c1cccc(NC(=O)Nc2cc(S(=O)(=O)NCC(F)(F)F)ccc2-c2ccccc2)c1` (stereo not shown) [Compound 83, 2-(3-(3-(methylsulfinyl)phenyl)ureido)-N-(2,2,2-trifluoroethyl)-[1,1′-biphenyl]-4-sulfonamide], 6.00 to 7.00; to `O=C(Nc1cc(S(=O)(=O)NCC(F)(F)F)ccc1-c1ccccc1)Nc1cnccc1C(F)(F)F` [Compound 84, N-(2,2,2-trifluoroethyl)-2-(3-(4-(trifluoromethyl)pyridin-3-yl)ureido)-[1,1′-biphenyl]-4-sulfonamide], 6.00 to 7.00.
